The text below walks through data of paper PMC12067145 (ACS Medicinal Chemistry Letters, 2025).

A value given as a limit tells only on which side of the number the result lay.

One assay concerns male CD-1 mice. Kind of assay: MK-801 challenged novel object recognition (NOR) task. It counts as in vivo, mouse. The note with it: IP, 3.5 h prior to MK-801 (0.2 mg/kg IP).
For another assay, the target named is HNC4 (Homo sapiens, UniProt Q9Y3Q4). Briefly: Cardiac ion channel MPC selectivity panel. The class given is cell-based.
Sequence of HNC4 (Q9Y3Q4 whole entry): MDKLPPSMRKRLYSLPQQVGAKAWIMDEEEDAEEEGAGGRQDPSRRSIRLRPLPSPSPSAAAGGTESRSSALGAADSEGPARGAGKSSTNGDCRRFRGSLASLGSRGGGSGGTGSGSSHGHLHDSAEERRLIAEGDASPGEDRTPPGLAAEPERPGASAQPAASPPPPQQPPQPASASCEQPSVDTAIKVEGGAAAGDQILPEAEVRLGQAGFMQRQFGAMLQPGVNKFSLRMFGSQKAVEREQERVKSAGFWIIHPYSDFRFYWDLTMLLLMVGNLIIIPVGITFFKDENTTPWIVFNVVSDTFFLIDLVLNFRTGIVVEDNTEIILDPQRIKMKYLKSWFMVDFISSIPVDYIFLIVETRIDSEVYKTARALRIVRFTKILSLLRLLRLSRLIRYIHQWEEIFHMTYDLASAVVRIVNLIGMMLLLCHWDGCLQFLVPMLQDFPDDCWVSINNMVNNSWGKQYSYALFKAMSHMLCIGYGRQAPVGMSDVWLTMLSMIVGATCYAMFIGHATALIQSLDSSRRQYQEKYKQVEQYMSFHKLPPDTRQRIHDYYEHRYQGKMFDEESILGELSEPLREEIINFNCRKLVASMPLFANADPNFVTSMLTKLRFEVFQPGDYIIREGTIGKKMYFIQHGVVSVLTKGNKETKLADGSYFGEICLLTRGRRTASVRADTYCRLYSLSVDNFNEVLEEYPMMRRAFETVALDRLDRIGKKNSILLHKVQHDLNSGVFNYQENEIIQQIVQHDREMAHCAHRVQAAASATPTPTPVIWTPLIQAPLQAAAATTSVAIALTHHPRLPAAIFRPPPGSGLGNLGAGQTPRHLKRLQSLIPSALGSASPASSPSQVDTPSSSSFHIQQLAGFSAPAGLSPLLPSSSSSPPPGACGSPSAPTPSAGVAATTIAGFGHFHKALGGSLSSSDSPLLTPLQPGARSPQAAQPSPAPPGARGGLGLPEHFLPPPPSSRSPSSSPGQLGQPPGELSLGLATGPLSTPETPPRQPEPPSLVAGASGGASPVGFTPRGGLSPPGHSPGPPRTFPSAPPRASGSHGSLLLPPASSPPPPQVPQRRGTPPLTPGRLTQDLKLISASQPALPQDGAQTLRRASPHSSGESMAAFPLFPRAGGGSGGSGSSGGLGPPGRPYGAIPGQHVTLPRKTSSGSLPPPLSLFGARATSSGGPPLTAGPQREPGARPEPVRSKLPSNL
For a further assay, the target named is Nav1.5 (Homo sapiens, UniProt Q14524). Briefly: Cardiac ion channel MPC selectivity panel. The class given is cell-based.
Sequence of Nav1.5 (Q14524 whole entry): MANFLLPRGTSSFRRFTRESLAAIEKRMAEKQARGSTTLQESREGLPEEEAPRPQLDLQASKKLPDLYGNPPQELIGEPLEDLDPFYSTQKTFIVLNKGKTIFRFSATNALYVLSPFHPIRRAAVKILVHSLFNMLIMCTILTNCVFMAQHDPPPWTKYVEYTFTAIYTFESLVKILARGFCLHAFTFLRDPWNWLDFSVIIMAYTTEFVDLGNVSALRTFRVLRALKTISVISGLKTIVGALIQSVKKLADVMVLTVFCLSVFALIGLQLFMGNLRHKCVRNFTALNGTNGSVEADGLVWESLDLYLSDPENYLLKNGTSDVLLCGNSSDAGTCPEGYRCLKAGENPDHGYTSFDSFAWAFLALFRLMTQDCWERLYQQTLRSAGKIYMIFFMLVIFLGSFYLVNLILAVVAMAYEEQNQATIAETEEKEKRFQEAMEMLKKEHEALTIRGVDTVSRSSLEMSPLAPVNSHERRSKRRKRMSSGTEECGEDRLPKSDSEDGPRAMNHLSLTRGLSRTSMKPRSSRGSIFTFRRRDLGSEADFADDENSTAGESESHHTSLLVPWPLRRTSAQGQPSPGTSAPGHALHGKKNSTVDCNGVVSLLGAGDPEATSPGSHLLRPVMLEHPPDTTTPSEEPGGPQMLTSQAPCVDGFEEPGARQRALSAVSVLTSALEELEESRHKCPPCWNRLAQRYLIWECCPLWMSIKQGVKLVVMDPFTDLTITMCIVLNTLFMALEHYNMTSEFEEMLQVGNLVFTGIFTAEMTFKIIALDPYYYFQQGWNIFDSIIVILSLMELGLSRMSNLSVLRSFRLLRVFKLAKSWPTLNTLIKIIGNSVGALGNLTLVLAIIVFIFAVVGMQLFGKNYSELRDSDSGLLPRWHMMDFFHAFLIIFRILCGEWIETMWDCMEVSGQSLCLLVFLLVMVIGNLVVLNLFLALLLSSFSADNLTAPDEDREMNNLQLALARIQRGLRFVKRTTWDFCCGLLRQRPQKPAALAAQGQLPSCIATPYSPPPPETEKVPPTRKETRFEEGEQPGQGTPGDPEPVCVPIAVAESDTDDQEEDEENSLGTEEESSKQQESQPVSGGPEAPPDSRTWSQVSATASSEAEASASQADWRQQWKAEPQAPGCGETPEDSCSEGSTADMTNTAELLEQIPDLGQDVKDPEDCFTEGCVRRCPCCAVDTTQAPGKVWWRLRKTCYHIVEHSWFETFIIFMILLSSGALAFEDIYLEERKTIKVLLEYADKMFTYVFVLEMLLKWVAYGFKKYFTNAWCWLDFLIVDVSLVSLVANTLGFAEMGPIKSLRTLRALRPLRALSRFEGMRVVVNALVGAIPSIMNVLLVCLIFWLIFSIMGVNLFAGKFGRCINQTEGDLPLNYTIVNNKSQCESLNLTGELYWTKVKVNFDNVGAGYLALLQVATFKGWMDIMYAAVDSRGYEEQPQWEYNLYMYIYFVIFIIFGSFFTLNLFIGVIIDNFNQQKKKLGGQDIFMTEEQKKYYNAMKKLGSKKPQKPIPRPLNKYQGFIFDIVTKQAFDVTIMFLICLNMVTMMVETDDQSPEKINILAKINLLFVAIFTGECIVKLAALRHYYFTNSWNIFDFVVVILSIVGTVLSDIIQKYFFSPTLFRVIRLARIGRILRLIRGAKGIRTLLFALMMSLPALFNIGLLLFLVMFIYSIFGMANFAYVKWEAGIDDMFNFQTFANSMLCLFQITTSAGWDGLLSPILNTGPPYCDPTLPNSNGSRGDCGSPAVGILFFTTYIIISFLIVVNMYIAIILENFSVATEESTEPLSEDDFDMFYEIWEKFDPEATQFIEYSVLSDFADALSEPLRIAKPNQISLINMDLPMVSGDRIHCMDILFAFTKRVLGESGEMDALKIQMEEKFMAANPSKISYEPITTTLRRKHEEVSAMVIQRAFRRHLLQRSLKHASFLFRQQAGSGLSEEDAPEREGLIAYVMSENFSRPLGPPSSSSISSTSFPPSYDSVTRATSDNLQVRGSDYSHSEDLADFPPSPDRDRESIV
The target of the next assay is TREK-1 (Mus musculus, UniProt P97438). Kind of assay: Mouse manual patch clamp (MPC). It counts as cell-based. Background: The patch-clamp technique gives a direct electrical read-out from membranes.
Sequence of TREK-1 (P97438 whole entry): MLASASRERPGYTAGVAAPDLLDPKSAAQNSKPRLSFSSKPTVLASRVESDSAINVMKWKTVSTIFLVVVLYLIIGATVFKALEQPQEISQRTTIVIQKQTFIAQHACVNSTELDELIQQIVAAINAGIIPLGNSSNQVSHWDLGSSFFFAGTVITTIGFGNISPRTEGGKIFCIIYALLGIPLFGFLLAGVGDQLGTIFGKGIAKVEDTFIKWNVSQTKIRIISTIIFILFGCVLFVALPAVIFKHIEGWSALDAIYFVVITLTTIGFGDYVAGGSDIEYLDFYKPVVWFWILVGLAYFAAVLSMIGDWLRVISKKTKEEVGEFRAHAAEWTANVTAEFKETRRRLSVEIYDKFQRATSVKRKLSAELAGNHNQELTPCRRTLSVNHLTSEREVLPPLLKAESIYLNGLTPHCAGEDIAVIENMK
Another assay concerns the target Cannabinoid CB1 (Homo sapiens, UniProt P21554). Briefly: Eurofins lead profiling screen (radioligand binding).
The target in a further assay is Neuropeptide Y Y2 (Homo sapiens, UniProt P49146). The description is as above.
In assay [1] the target is Transporter, Norepinephrine (NET) (Homo sapiens, UniProt P23975). The description is as above.
Sequence of Transporter, Norepinephrine (NET) (P23975 whole entry): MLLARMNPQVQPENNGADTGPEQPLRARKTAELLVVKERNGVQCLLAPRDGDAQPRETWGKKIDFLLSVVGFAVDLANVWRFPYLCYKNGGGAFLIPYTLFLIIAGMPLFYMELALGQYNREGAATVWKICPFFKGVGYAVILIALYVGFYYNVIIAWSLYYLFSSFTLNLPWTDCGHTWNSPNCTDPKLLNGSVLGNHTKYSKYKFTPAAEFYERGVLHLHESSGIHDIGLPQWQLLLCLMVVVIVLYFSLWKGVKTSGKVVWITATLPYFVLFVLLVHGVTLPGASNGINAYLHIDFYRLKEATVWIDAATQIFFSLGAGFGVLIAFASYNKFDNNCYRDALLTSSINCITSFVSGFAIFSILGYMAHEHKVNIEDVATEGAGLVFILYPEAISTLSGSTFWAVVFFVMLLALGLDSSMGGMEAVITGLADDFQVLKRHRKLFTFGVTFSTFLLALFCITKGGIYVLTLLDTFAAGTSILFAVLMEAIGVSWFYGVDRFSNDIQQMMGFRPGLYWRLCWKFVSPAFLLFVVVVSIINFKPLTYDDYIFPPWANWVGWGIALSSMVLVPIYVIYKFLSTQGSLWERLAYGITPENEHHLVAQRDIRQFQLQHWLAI
A further assay addresses Sigma σ1 (Homo sapiens, UniProt Q99720). The description is as above.
Assay [2] concerns the target Platelet Activating Factor (PAF) (Homo sapiens, UniProt P25105). Described as above.
The target in assay [3] is Calcium Channel L-Type, Benzothiazepine (Rattus norvegicus, UniProt P22002). The assay is described as above.
Another assay deals with Endothelin ETB (Homo sapiens, UniProt P24530). The assay is described as above.
A further assay deals with Adrenergic α1A (Rattus norvegicus, UniProt P43140). The description is as above.
Another assay addresses Glucocorticoid (Homo sapiens, UniProt P04150). The assay is described as above.
Another assay deals with Potassium Channel [KATP] (Cricetus cricetus, UniProt Q09427). The assay is described as above. Also on record: species or system Hamster.
The subject of a further assay is Phorbol Ester. The description is as above. The arrangement: species or system Mouse.
The target in assay [4] is Leukotriene, Cysteinyl CysLT1 (Homo sapiens, UniProt Q9Y271). The assay is described as above.
A further assay relates to Purinergic P2Y. The assay is described as above. Also on record: species or system Rat.
Assay [5] concerns the target Epidermal Growth Factor (EGF) (Homo sapiens, UniProt P00533). The assay is described as above.
The target in the next assay is Adenosine A1 (Homo sapiens, UniProt P30542). The description is as above.
In another assay the test system is Rolipram. The assay is described as above. Also on record: species or system Rat.
A further assay concerns the target Calcium Channel N-Type (Rattus norvegicus, UniProt Q02294). The description is as above.
The subject of another assay is Glutamate, Kainate. The assay is described as above. Also on record: species or system Rat.
The test system of a further assay is Glutamate, NMDA, Agonism. Described as above. Also on record: species or system Rat.
The target of another assay is Serotonin (5-HT3) (Homo sapiens, UniProt P46098). The assay is described as above.
For the next assay, the target named is Opiate κ (OP2, KOP) (Homo sapiens, UniProt P41145). The assay is described as above.
The target of another assay is Dopamine D3 (Homo sapiens, UniProt P35462). The assay is described as above.
In the next assay the target is Histamine H2 (Homo sapiens, UniProt P25021). The description is as above.
For another assay, the target named is Prostanoid EP4 (Homo sapiens, UniProt P35408). The description is as above.
The next assay concerns the target Adrenergic α2A (Homo sapiens, UniProt P08913). The description is as above.
In a further assay the test system is Imidazoline I2, Central. Described as above. Also on record: species or system Rat.
The next assay has as its target Serotonin (5-HT1A) (Homo sapiens, UniProt P08908). The assay is described as above.

For orientation: IC50 means the concentration needed to halve the response being measured. Usually inhibition stands for the change of the read-out against control, counted positive when it falls. Broadly, the % Inhibition is the relative decrease from the control value, in per cent.

Sequence of Glucocorticoid (P04150 whole entry): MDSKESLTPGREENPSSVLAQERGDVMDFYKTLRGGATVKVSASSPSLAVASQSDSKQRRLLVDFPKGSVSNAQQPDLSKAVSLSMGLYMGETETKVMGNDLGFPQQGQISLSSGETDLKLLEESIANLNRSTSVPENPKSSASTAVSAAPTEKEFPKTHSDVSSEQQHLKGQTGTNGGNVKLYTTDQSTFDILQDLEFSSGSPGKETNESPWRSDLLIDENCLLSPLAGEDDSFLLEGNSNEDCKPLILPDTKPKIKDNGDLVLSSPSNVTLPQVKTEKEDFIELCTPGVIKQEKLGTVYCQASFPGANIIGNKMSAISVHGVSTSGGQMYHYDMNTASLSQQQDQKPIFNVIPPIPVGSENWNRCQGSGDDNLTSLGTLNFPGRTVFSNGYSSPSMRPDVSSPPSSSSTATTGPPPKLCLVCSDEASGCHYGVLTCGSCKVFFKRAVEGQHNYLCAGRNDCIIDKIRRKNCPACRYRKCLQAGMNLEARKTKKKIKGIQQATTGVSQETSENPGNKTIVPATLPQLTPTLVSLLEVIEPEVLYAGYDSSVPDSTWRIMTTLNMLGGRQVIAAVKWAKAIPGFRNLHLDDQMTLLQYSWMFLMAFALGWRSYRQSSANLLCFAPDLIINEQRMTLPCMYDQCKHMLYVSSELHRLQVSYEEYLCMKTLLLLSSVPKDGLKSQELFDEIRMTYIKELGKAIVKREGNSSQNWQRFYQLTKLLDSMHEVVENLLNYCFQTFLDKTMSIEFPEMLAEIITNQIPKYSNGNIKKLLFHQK
Description for male CD-1 mice: A plastic chamber (W 345×L 400×H 180 mm) was used for the novel object recognition test. The light intensity in the test room was maintained at approximately 20 lux. The novel object recognition test was conducted over two days. On the first day, mice were placed in the chamber without any objects and allowed to explore freely for 10 minutes to acclimate to the experimental environment. […] Thirty minutes after the MK-801 challenge, the acquisition trial

As for `Cc1cc(C#Cc2ccc(F)cc2)cnc1NC(=O)c1cc(NC(=O)OC(C)(C)C)ccc1Cl` [Compound 14c], in the assay on male CD-1 mice, the “minimum effective dose (MED)” value was determined as 10 mg/kg. The “% at 10 μM, HNC4” value at HNC4 was less than 50%. Further, the “% at 10 μM, Nav1.5” value on Nav1.5 is reported as less than 50%. The IC50 at TREK-1 was found to be 67 nM.

For `O=C(NCc1ccc(OC(F)(F)F)cc1F)c1ccc2ncnn2c1` [ONO-2920632], the inhibition at 10 µM at Cannabinoid CB1 was -23%; on Neuropeptide Y Y2 it was 6%; in [1], 29%; on Sigma σ1, 30%; in assay [2], 26%; in assay [3], 56%. Besides, the inhibition at 10 µM is -6% on Endothelin ETB; 40% at Adrenergic α1A; -4% at Glucocorticoid; -6% on Potassium Channel [KATP]; -7% in assay [4]; -2% in [5]. For the same compound, the inhibition at 10 µM at Adenosine A1 is 2%; on Calcium Channel N-Type it was 4%; at Serotonin (5-HT3), -4%; at Opiate κ (OP2, KOP), 9%; on Dopamine D3 it was 12%; at Histamine H2 it was -12%. For the same compound, the results for the inhibition at 10 µM at Prostanoid EP4, at Adrenergic α2A and at Serotonin (5-HT1A) were 19%, 36% and 4%, respectively. The “% Inhibition at 10 µM” value is listed as -7% in the assay on Phorbol Ester; 1% in the assay on Purinergic P2Y; 5% in the assay on Rolipram; 3% in the assay on Glutamate, Kainate; 2% in the assay with Glutamate, NMDA, Agonism; 10% with Imidazoline I2, Central.
